Where two headings read alike, the source gives them in different places.
Key:
SF-539 = test: cells; settings: Homo sapiens, SF-539, 48 h
SNB-75 [1] = system: SNB-75
TK-10 = test: cells; settings: Homo sapiens, TK-10, 48 h
T-47D = test: cells; settings: Homo sapiens, T47D, 48 h
SNB-75 [2] = test: cells; settings: Homo sapiens, SNB-75, 48 h
HT29 = test: cells; settings: Homo sapiens, HT-29, 48 h
IGROV1 = test: cells; settings: Homo sapiens, IGROV-1, 48 h
HCC-2998 = settings: HCC-2998
HCT-15 = test: cells; settings: Homo sapiens, HCT-15, 48 h
NCI/ADR-RES = settings: NCI/ADR-RES
SK-MEL-5 = test: cells; settings: Homo sapiens, SK-MEL-5, 48 h
NCI-H322M = settings: NCI-H322M
SN12C = test: cells; settings: Homo sapiens, 48 h
788-0 = settings: 788-0
MDA-MB-231/ATCC = test: cells; settings: Homo sapiens, MDA-MB-231, 48 h
RXF 393 = settings: RXF 393
DU-145 = test: cells; settings: Homo sapiens, DU-145, 48 h
[3] = Log10 Concentration −4.0, Molar
[4] = Log10 Concentration −5.0, Molar
[5] = Log10 Concentration −6.0, Molar
[6] = Log10 Concentration −7.0, Molar
[7] = Log10 Concentration −8.0, Molar

CCOC(=O)C[C@@H]1C(O[Si](C)(C)C(C)(C)C)[C@H](n2cnc3c(NC(=O)Nc4ccccc4)ncnc32)O[C@@H]1CNC(=O)NC (stereo partly shown) [Compound 10]
GI50 (SF-539): 5.19 µM
CC50 (SF-539; read-out: LC50): > 100 µM
TGI (SNB-75 [1]; 48 h): >1.00E−4 Molar
Percent Growth (SNB-75 [1]; [3]): 22%
Percent Growth (SNB-75 [1]; [4]): 32%
Percent Growth (SNB-75 [1]; [5]): 85%
Percent Growth (SNB-75 [1]; [6]): 90%
Percent Growth (SNB-75 [1]; [7]): 92%
TGI (OVCAR-8; 48 h): 7.72E−5 Molar
Percent Growth (OVCAR-8; [3]): −4%
Percent Growth (OVCAR-8; [4]): 29%
Percent Growth (OVCAR-8; [5]): 98%
Percent Growth (OVCAR-8; [6]): 100%
Percent Growth (OVCAR-8; [7]): 99%
GI50 (TK-10): 12.4 µM
CC50 (TK-10; read-out: LC50): > 100 µM
GI50 (T-47D): 2.55 µM
CC50 (T-47D; read-out: LC50): > 100 µM
GI50 (SNB-75 [2]): 4.56 µM
CC50 (SNB-75 [2]; read-out: LC50): > 100 µM
GI50 (HT29): 4.2 µM
CC50 (HT29; read-out: LC50): > 100 µM
GI50 (IGROV1): 3.85 µM
CC50 (IGROV1; read-out: LC50): 79.2 µM
TGI (SNB-19; 48 h): >1.00E−4 Molar
Percent Growth (SNB-19; [3]): 12%
Percent Growth (SNB-19; [4]): 82%
Percent Growth (SNB-19; [5]): 87%
Percent Growth (SNB-19; [6]): 95%
Percent Growth (SNB-19; [7]): 92%
TGI (HCC-2998; 48 h): >1.00E−4 Molar
Percent Growth (HCC-2998; [3]): 62%
Percent Growth (HCC-2998; [4]): 69%
Percent Growth (HCC-2998; [5]): 93%
Percent Growth (HCC-2998; [6]): 96%
Percent Growth (HCC-2998; [7]): 101%
GI50 (HCT-15): 8.5 µM
CC50 (HCT-15; read-out: LC50): > 100 µM
TGI (ACHN; 48 h): >1.00E−4 Molar
Percent Growth (ACHN; [3]): 35%
Percent Growth (ACHN; [4]): 47%
Percent Growth (ACHN; [5]): 96%
Percent Growth (ACHN; [6]): 97%
Percent Growth (ACHN; [7]): 107%
TGI (NCI/ADR-RES; 48 h): >1.00E−4 Molar
Percent Growth (NCI/ADR-RES; [3]): 59%
Percent Growth (NCI/ADR-RES; [4]): 80%
Percent Growth (NCI/ADR-RES; [5]): 104%
Percent Growth (NCI/ADR-RES; [6]): 107%
Percent Growth (NCI/ADR-RES; [7]): 105%
TGI (OVCAR-4; 48 h): >1.00E−4 Molar
Percent Growth (OVCAR-4; [3]): 16%
Percent Growth (OVCAR-4; [4]): 53%
Percent Growth (OVCAR-4; [5]): 95%
Percent Growth (OVCAR-4; [6]): 103%
Percent Growth (OVCAR-4; [7]): 98%
GI50 (SK-MEL-5): 4.34 µM
CC50 (SK-MEL-5; read-out: LC50): > 100 µM
TGI (NCI-H226; 48 h): >1.00E−4 Molar
Percent Growth (NCI-H226; [3]): 55%
Percent Growth (NCI-H226; [4]): 71%
Percent Growth (NCI-H226; [5]): 102%
Percent Growth (NCI-H226; [6]): 105%
Percent Growth (NCI-H226; [7]): 101%
TGI (NCI-H322M; 48 h): >1.00E−4 Molar
Percent Growth (NCI-H322M; [3]): 72%
Percent Growth (NCI-H322M; [4]): 89%
Percent Growth (NCI-H322M; [5]): 95%
Percent Growth (NCI-H322M; [6]): 90%
Percent Growth (NCI-H322M; [7]): 105%
GI50 (SN12C): 9.1 µM
CC50 (SN12C; read-out: LC50): > 100 µM
TGI (788-0; 48 h): 5.21E−8 Molar
Percent Growth (788-0; [3]): −97%
Percent Growth (788-0; [4]): −34%
Percent Growth (788-0; [5]): 86%
Percent Growth (788-0; [6]): 83%
Percent Growth (788-0; [7]): 92%
GI50 (MDA-MB-231/ATCC): 3.96 µM
CC50 (MDA-MB-231/ATCC; read-out: LC50): > 100 µM
TGI (COLO 205; 48 h): >1.00E−4 Molar
Percent Growth (COLO 205; [3]): 3%
Percent Growth (COLO 205; [4]): 20%
Percent Growth (COLO 205; [5]): 93%
Percent Growth (COLO 205; [6]): 97%
Percent Growth (COLO 205; [7]): 102%
TGI (MALME-3M; 48 h): >1.00E−4 Molar
Percent Growth (MALME-3M; [3]): 17%
Percent Growth (MALME-3M; [4]): 50%
Percent Growth (MALME-3M; [5]): 92%
Percent Growth (MALME-3M; [6]): 95%
Percent Growth (MALME-3M; [7]): 104%
TGI (RXF 393; 48 h): 4.63E−6 Molar
Percent Growth (RXF 393; [3]): −59%
Percent Growth (RXF 393; [4]): −46%
Percent Growth (RXF 393; [5]): 92%
Percent Growth (RXF 393; [6]): 97%
Percent Growth (RXF 393; [7]): 99%
TGI (NCI-H522; 48 h): 8.57E−5 Molar
Percent Growth (NCI-H522; [3]): −2%
Percent Growth (NCI-H522; [4]): 32%
Percent Growth (NCI-H522; [5]): 83%
Percent Growth (NCI-H522; [6]): 85%
Percent Growth (NCI-H522; [7]): 89%
GI50 (DU-145): 4.97 µM
CC50 (DU-145; read-out: LC50): 78.4 µM
